Consider two compounds from patent US10596172B2 (Celgene CAR LLC, priority 2008, dated 2020).

Structures are written as SMILES. Where two headings read alike, the source gives them in different places. Where only a bound is given, the exact number is not on record here.

One may read the EC50 as the concentration at which the effect is half-maximal.

Assay [1] addresses BTK (Homo sapiens (Human), UniProt Q06187). Kind of assay: Washout experiment with Ramos cells. To be noted: 100 nM compound 1 hour, then washout. Type of assay: cell-based. Here is the method:
Ramos cells were serum starved for one hour in RPMI media +1% glutamine at 37° C. After starvation, Ramos cells were treated with 100 nM compound diluted in serum free RPMI media for 1 hour. After compound treatment, the media was removed and cells were washed with compound-free media. Subsequently, Ramos cells were washed every 2 hours and resuspended in fresh compound-free media. Cells were collected at specified timepoints, treated with 1 ug anti-human IgM (Southern Biotech cat #2022-01) for 10 minutes on ice to induce BCR signaling and then washed in PBS. Ramos cells were then lysed in Cell Extraction Buffer (Invitrogen FNN0011) supplemented with Roche complete protease inhibitor tablets (Roche 11697498001) and phosphatase inhibitors (Roche 04 906 837 001) and 18 ug total protein lysate was loaded in each lane. Inhibition of BTK kinase activity was assayed by measuring its substrate (PLCγ2) phosphorylation by western blot with phospho-specific antibodies from Cell Signaling Technologies cat #3871. The results of this experiment with compounds I-2, I-4 and I-7 are depicted in FIGS. 1, 2 and 3.

Assay [2] deals with B cell lymphoma cell lines. As to the kind of experiment: B cell lymphoma proliferation assay. Type of assay: cell-based.
Assay [3] concerns the target JAK3 (Homo sapiens (Human), UniProt P52333). As to the kind of experiment: Omnia assay for potency assessment against the active form of JAK3. Type of assay: biochemical. The conditions noted are these: read-out: JAK3 Inhibition.
Assay [4] deals with BTK (Rattus norvegicus, UniProt Q5S255). Kind of assay: BTK occupancy from in vivo samples by ELISA. The conditions noted are these: po, rats dosed orally 30 mg/kg. The procedure:
All samples were prepared with equal concentrations of Biorad lysis buffer (Hercules, Calif., USA), 0.5% bovine serum albumin in PBS with 0.05% Tween-20 to give a final concentration of 1 μM I-215. Samples were incubated in a mixing plate for 1 hr at room temperature while shaking to allow probe compound I-215 to bind to free BTK. After incubation with I-215, samples were added to a washed, streptavidin-coated ELISA plate (Pierce, Rockford, Ill., USA) and incubated for 1 hr at room temperature while shaking. The plate was then washed with PBS containing 0.05% Tween-20 using an automatic plate washer. Anti-BTK antibody was prepared at 1:1000 dilution in 0.5% BSA in PBS (0.05% Tween-20) and added to the ELISA plate. The plate was incubated for 1 hr at room temperature while shaking. The plate was washed as described above and the secondary HRP antibody was prepared at 1:5000 dilution in 0.5% BSA in PBS (0.05% Tween-20). The plate was incubated and washed as described above. TMB was added to the plate, and OD650 was monitored until reaching 1 OD unit. The reaction was then stopped with addition of H2SO4. The plate was analyzed using Gen 5 software, and a 4 Parameter Logistic curve was employed to quantitate samples. Recombinant BTK (Invitrogen, Carlsbad, Calif., USA) was used for the standard curve.
Rats were dosed orally with 30 mg/kg of compound and spleens were harvested either 2 or 24 hours after compound treatment. Rat spleens were disrupted between two microscope slides coated with frosted glass to recover single cell suspensions. Red blood cells were lysed by incubating with RBC lysis buffer (Boston BioProducts) for 2 minutes at room temperature, the cells were then resuspended in RPMI complete media and pelleted by centrifugation. Rat B cells were isolated by positive selection with B220+ antibody-magnetic bead conjugates, purified by MACS column and lysed in Bio-Rad lysis buffer at a concentration of 10 million cells/100 μl. Lysates were analyzed employing the biotinylated probe compound I-215 in an ELISA protocol as described in detail in Example 278.
A general note: ELISA stands for enzyme-linked immunosorbent assay.

Where [5] appears, read: DHL4 B cell lymphoma cell line, read-out: EC50 (μM) DHL4.
Setting [6] is: Homo sapiens, DOHH-2, DOHH2 B cell lymphoma cell line, read-out: EC50 (μM) DOHH2.
The mark [7] stands for this setting: Homo sapiens, WSUDLCL2, WSU-DLCL2 B cell lymphoma cell line, read-out: EC50 (μM) WSU-DLCL2.
Setting [8] is: spleen B cells harvested 2 hours after treatment, read-out: % BTK Occupancy 2 h.
Setting [9] is: spleen B cells harvested 24 hours after treatment, read-out: % BTK Occupancy 24 h.

Chain of BTK (Rattus norvegicus, UniProt Q5S255) (Q5S255 1-660): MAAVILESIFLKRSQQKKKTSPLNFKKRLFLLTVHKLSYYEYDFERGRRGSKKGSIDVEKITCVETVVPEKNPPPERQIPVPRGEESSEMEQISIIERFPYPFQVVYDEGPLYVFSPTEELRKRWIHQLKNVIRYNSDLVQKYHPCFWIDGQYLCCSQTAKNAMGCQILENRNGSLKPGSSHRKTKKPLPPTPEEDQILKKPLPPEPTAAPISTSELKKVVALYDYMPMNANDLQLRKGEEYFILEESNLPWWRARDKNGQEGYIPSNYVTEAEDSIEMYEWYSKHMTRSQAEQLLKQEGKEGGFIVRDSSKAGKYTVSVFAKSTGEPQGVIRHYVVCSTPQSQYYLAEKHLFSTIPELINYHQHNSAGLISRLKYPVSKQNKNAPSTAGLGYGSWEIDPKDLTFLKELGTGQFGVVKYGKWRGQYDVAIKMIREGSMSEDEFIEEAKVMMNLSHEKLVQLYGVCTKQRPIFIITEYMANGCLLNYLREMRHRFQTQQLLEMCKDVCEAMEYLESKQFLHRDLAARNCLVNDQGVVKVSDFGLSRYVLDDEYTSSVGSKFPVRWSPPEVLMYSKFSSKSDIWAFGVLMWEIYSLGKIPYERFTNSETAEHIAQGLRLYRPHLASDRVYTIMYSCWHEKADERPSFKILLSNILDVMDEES
Chain of JAK3 (P52333 whole entry): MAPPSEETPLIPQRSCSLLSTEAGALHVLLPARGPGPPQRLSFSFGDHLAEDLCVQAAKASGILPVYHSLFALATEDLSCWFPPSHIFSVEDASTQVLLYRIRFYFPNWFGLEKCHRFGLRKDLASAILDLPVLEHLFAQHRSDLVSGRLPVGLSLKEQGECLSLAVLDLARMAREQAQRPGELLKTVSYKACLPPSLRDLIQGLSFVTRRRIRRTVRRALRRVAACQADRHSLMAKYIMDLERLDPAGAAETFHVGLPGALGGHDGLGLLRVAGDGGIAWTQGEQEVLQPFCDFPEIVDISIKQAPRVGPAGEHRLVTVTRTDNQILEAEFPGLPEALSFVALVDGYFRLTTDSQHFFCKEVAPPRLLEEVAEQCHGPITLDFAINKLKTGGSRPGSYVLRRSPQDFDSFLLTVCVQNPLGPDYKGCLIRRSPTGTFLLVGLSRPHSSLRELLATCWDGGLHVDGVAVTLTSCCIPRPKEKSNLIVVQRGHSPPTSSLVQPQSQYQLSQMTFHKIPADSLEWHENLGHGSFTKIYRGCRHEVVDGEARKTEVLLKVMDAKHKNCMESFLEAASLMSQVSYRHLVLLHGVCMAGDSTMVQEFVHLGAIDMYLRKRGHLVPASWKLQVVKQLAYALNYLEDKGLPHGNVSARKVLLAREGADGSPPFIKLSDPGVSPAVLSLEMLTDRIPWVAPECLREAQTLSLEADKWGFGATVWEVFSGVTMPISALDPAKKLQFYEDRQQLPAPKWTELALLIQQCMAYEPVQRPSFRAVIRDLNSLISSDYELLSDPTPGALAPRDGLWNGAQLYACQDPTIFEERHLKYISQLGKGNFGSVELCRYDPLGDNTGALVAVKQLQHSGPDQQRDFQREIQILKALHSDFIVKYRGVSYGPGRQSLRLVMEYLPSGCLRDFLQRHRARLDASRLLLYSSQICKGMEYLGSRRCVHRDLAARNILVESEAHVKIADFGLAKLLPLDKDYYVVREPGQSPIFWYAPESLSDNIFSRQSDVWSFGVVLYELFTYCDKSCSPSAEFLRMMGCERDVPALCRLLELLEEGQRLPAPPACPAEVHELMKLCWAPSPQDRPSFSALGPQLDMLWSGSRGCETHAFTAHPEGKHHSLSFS
Chain of BTK (Homo sapiens (Human), UniProt Q06187) (Q06187 whole entry): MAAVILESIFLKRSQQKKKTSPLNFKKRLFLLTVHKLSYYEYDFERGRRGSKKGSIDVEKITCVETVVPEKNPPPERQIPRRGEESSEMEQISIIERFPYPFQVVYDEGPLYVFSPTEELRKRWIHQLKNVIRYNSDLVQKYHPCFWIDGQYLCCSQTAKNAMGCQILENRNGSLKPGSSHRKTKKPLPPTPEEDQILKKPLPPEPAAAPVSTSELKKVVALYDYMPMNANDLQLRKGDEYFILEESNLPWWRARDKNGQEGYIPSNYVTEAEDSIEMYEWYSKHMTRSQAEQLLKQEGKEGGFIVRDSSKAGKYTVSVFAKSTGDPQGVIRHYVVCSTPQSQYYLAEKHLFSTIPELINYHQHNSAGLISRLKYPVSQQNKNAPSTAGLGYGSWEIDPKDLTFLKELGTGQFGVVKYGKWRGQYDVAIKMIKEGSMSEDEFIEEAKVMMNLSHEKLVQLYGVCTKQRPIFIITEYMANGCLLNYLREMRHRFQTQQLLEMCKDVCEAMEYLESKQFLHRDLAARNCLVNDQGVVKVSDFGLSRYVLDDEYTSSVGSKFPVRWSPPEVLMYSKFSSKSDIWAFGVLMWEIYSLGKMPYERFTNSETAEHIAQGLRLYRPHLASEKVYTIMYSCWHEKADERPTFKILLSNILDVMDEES

On to `Cc1cccc(Nc2nc(Nc3cccc(NC(=O)/C=C/CN(C)C)c3)ncc2F)c1` [Compound I-4, (E)-4-(dimethylamino)-N-(3-(5-fluoro-4-(m-tolylamino)pyrimidin-2-ylamino)phenyl)but-2-enamide], for which the “BTK Inhibition Type” value in assay [1] was “irreversible”. The EC50 in assay [2] (setting [5]), in assay [2] (setting [6]) and in assay [2] (setting [7]) was 0.1 to 1 µM throughout. In addition, the IC50 in assay [3] is less than 10 nM. The receptor occupancy at 30 mg/kg in assay [4] (setting [8]) turned out to be 87%; in assay [4] (setting [9]), 68%.
As for `C=CC(=O)Nc1cccc(Nc2nc(Nc3ccccc3)ncc2C)c1` [Compound I-7, N-(3-(5-methyl-2-(phenylamino)pyrimidin-4-ylamino)phenyl)acrylamide], the “BTK Inhibition Type” value in assay [1] is given as “irreversible”. The EC50 in assay [2] (setting [5]), in assay [2] (setting [6]) and in assay [2] (setting [7]) was 1 to 10 µM each time. Besides, in assay [3], the IC50 is less than 10 nM. In addition, the receptor occupancy at 30 mg/kg stood at 98% in assay [4] (setting [8]) and 78% in assay [4] (setting [9]).
